From patent US6916812B2, “Alpha-aminoamide derivatives as melanocortin agonists” (Bristol-Myers Squibb Company, priority 2001, dated 2005)
Where two headings read alike, the source gives them in different places.

Key:
cloned human MC4R = biological target: T1, cloned human MC4R (Homo sapiens, UniProt P32245); assay: Membrane binding assay: competitive inhibition of [125I]NDP-α-MSH binding; details: for inhibition at 10 µM: read-out: Displacement Rate (%) (at 10 μM); for IC50: read-out: MC4R IC50
T1 construct: made in house; host or cells: Hi5 insect cells (baculovirus infection); membrane preparation
T1 sequence (P32245 whole entry): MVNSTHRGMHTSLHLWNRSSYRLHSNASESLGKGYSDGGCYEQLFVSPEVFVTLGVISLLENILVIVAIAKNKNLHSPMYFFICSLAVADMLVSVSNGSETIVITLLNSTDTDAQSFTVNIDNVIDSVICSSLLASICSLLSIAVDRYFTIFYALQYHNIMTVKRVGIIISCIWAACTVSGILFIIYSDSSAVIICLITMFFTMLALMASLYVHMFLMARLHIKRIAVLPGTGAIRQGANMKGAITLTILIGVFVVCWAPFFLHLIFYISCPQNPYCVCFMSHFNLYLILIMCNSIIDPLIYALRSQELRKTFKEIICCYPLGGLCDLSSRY

Rodents = details: injected intracerebroventricularly (ICV); NPY, ob/ob, agouti, fasted feeding models; cited from earlier work
[1] = tested on: male volunteers / patients with psychogenic erectile dysfunction; details: cited from earlier work
[2] = at 10 μM, [125I]NDP-α-MSH displacement
[3] = intramuscular, 0.005-0.03 mg/kg, three normal male volunteers
[4] = subcutaneous, 0.025 mg/kg and 0.1 mg/kg, 10 patients with psychogenic erectile dysfunction

| Molecule | inhibition at 10 µM (cloned human MC4R; [2]) [%] | IC50 (cloned human MC4R) [nM] | inhibition at 10 µM (cloned human MC4R) [%] | other results |
| --- | --- | --- | --- | --- |
| CN(C)c1ccc(-c2ccc(C[C@H](N)C(=O)N3CCN(Cc4cccc(Cl)c4Cl)CC3)cc2)cc1 [Example 323] | 71 to 90 | 1500 to 3000 |  |  |
| N[C@@H](Cc1ccc(-c2c(Cl)cccc2Cl)cc1)C(=O)N1CCN(Cc2cccc(Cl)c2Cl)CC1 [Example 324] | 91 to 100 | 1500 to 3000 |  |  |
| COc1cccc(-c2ccc(C[C@H](N)C(=O)N3CCN(Cc4cccc(Cl)c4Cl)CC3)cc2)c1 [Example 325] | 71 to 90 | 1500 to 3000 |  |  |
| COc1ccccc1-c1ccc(C[C@H](N)C(=O)N2CCN(Cc3cccc(Cl)c3Cl)CC2)cc1 [Example 326] | 71 to 90 | 1500 to 3000 |  |  |
| COc1ccc(Cl)cc1-c1ccc(C[C@H](N)C(=O)N2CCN(Cc3cccc(Cl)c3Cl)CC2)cc1 [Example 327] |  | 1500 to 3000 |  | Displacement Rate (%) (at 10 μM) (cloned human MC4R; [2]): +++ (+++ = 91-100) |
| CC(=O)c1cccc(-c2ccc(C[C@H](N)C(=O)N3CCN(Cc4cccc(Cl)c4Cl)CC3)cc2)c1 [Example 328] | 71 to 90 | 1500 to 3000 |  |  |
| N[C@@H](Cc1ccc(-c2ccc(C(=O)O)cc2)cc1)C(=O)N1CCN(Cc2cccc(Cl)c2Cl)CC1 [Example 329] | 71 to 90 | > 3000 |  |  |
| N[C@@H](Cc1ccc(-c2cccc([N+](=O)[O-])c2)cc1)C(=O)N1CCN(Cc2cccc(Cl)c2Cl)CC1 [Example 330] | 71 to 90 | > 3000 |  |  |
| COc1ccc(-c2ccc(C[C@H](N)C(=O)N3CCN(Cc4cccc(Cl)c4Cl)CC3)cc2)cc1OC [Example 331] |  | > 3000 |  | Displacement Rate (%) (at 10 μM) (cloned human MC4R; [2]): + (+ = 35-70) |
| CC(C)c1ccc(-c2ccc(C[C@H](N)C(=O)N3CCN(Cc4cccc(Cl)c4Cl)CC3)cc2)cc1 [Example 332] | 35 to 70 | > 3000 |  |  |
| Nc1cccc(-c2ccc(C[C@H](N)C(=O)N3CCN(Cc4cccc(Cl)c4Cl)CC3)cc2)c1 [Example 333] | 71 to 90 | > 3000 |  |  |
| COc1cc(-c2ccc(C[C@H](N)C(=O)N3CCN(Cc4cccc(Cl)c4Cl)CC3)cc2)cc(OC)c1OC [Example 334] | 35 to 70 | > 3000 |  |  |
| N[C@@H](Cc1ccc(-c2cccc3c2Sc2ccccc2O3)cc1)C(=O)N1CCN(Cc2cccc(Cl)c2Cl)CC1 [Example 335] |  | < 1500 | 91 to 100 |  |
| N[C@@H](Cc1ccc(-c2cccc3c2oc2ccccc23)cc1)C(=O)N1CCN(Cc2cccc(Cl)c2Cl)CC1 [Example 336] |  | < 1500 | 91 to 100 |  |
| N[C@@H](Cc1ccc(-c2cccc3c2sc2ccccc23)cc1)C(=O)N1CCN(Cc2cccc(Cl)c2Cl)CC1 [Example 337] |  | < 1500 | 91 to 100 |  |
| N[C@@H](Cc1ccc(-c2cc3ccccc3s2)cc1)C(=O)N1CCN(Cc2cccc(Cl)c2Cl)CC1 [Example 338] |  | < 1500 | 91 to 100 |  |
| N[C@@H](Cc1ccc(-c2ccsc2)cc1)C(=O)N1CCN(Cc2cccc(Cl)c2Cl)CC1 [Example 339] |  | < 1500 | 91 to 100 |  |
| N[C@@H](Cc1ccc(-c2cccc3cccnc23)cc1)C(=O)N1CCN(Cc2cccc(Cl)c2Cl)CC1 [Example 340] |  | 1500 to 3000 | 71 to 90 |  |
| N[C@@H](Cc1ccc(-c2cnc3ccccc3c2)cc1)C(=O)N1CCN(Cc2cccc(Cl)c2Cl)CC1 [Example 341] |  | 1500 to 3000 | 71 to 90 |  |
| CC(=O)c1ccc(-c2ccc(C[C@H](N)C(=O)N3CCN(Cc4cccc(Cl)c4Cl)CC3)cc2)s1 [Example 342] |  | 1500 to 3000 | 71 to 90 |  |
| COc1ccc(-c2ccc(C[C@H](N)C(=O)N3CCN(Cc4cccc(Cl)c4Cl)CC3)cc2)cn1 [Example 343] |  | > 3000 | 35 to 70 |  |
| N[C@@H](Cc1ccc(Oc2ccccc2)cc1)C(=O)N1CCN(Cc2cccc(Cl)c2Cl)CC1 [Example 344] |  | > 3000 |  |  |
| Cc1ccc(Oc2ccc(C[C@H](N)C(=O)N3CCN(Cc4cccc(Cl)c4Cl)CC3)cc2)cc1 [Example 345] |  | < 1500 |  |  |
| N[C@@H](Cc1ccc(Oc2ccc(Cl)c(Cl)c2)cc1)C(=O)N1CCN(Cc2cccc(Cl)c2Cl)CC1 [Example 346] |  | 1500 to 3000 |  |  |
| Cc1cccc(Oc2ccc(C[C@H](N)C(=O)N3CCN(Cc4cccc(Cl)c4Cl)CC3)cc2)c1 [Example 347] |  | 1500 to 3000 |  |  |
| Cc1ccccc1Oc1ccc(C[C@H](N)C(=O)N2CCN(Cc3cccc(Cl)c3Cl)CC2)cc1 [Example 348] |  | 1500 to 3000 |  |  |
| MT-II |  |  |  | food intake (Rodents): reduced food intake; penile erections [1, 3]: intermittent non-painful penile erections; period of erections after dosing [1, 3]: 1 to 5 h; onset of transient erections [1, 4]: 50 to 180 min; responders with transient erections [1, 4]: 8 |
| SHU-9119 |  |  |  | food intake (Rodents): reverses this effect and can induce hyperphagia |
